Measurements published in patent US9469631B2 (Boehringer Ingelheim International GmbH, priority 2012, dated 2016).

Target: human GPR119 (Homo sapiens (Human), UniProt Q8TDV5)
Assay: AlphaScreen cAMP assay in MIN6 cells stably transfected with human GPR119
Type: cell-based
Details: Min-6/hGPR119 cells, 45 min incubation at room temperature
Procedure: The compounds of formula I according to the invention modulate the activity of the G-protein-coupled receptor GPR119. The effect of the compounds on the activation of GPR119 and on the stimulation of intracellular cAMP concentration is determined using the AlphaScreen cAMP Assay Kit (Cat. No. #6760625R) made by PerkinElmer.
MIN6 cells [Miyazaki J et al. Endocrinology. 1990 July; 127(1):126-32] are stably transfected with an expression vector for human GPR119 cDNA (Acc. No. NP_848566). Min-6/hGPR119 cells are cultured in DMEM, 10% FBS, 50 μM β-mercaptoethanol, 0.3 mg/mL Geniticin, 2 mM GlutaMAX at 37° C. 5% CO2. For the assay, the cells are seeded in Optiplates (white, 384-well, 160W-barcoded, TC, sterile with lid, Cat. No. #6007688 (Perkin Elmer); 10000 cells/well; 50 μl). The plates covered with lids are then incubated for 24 hours at 37° C./5% CO2. After the medium is aspirated from the wells completely, 10 μl of the test compound are added, the compounds are diluted using stimulating buffer (140 mM NaCl, 3.6 mM KCl, 0.5 mM NaH2PO4, 0.5 mM MgSO4, 1.5 mM CaCl2, 10 mM Hepes, 5 mM NaHCO3; pH 7.4. 0.5 mM IBMX and 0.1% BSA, the final DMSO concentration is 1%). After 45 minutes incubation at room temperature (approx. 20° C.), the cAMP concentrations are determined using the AlphaScreen cAMP Assay Kit (Cat. No. #6760625R from PerkinElmer).

Chain of human GPR119 (Q8TDV5 whole entry): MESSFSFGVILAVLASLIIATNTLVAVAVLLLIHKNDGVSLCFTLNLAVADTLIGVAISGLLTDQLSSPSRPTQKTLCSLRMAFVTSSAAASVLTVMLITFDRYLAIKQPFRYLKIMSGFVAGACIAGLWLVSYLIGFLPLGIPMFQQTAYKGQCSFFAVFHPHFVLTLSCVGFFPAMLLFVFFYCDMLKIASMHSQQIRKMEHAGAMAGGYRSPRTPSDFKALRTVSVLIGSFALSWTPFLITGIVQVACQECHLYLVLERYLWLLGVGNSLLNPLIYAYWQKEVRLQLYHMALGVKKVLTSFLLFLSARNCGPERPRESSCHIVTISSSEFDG

| EC50 | Structure (SMILES) |
| --- | --- |
| 161 nM | CC(C)(C)NS(=O)(=O)c1ccccc1-c1ccc(C(=O)N(C2CC2)C2CCN(C(=O)OC(C)(C)C)CC2)cc1 [Example 97, 4-[(2′-tert-Butylsulfamoyl-biphenyl-4-carbonyl)-cyclopropyl-amino]-piperidine-1-carboxylic acid tert-butyl ester] |
| 513 nM | Cc1nnc(-c2ccc(C(=O)N(C3CC3)C3CCN(C(=O)OC(C)(C)C)CC3)cc2)o1 [Example 61, 4-{Cyclopropyl-[4-(5-methyl-[1,3,4]oxadiazol-2-yl)-benzoyl]-amino}-piperidine-1-carboxylic acid tert-butyl ester] |
| 1170 nM | CN(C)C(=O)Nc1nc(-c2ccc(C(=O)N(C3CC3)C3CCN(C(=O)OC(C)(C)C)CC3)cc2)ns1 [Example 72, 4-(Cyclopropyl-{4-[5-(3,3-dimethyl-ureido)-[1,2,4]thiadiazol-3-yl]-benzoyl}-amino)-piperidine-1-carboxylic acid tert-butyl ester] |
| 33 nM | CC(C)(C)OC(=O)N1CCC(N(C(=O)c2ccc(-c3cnco3)cc2)C2CC2)CC1 [Example 53, 4-[Cyclopropyl-(4-oxazol-5-yl-benzoyl)-amino]-piperidine-1-carboxylic acid tert-butyl ester] |
| 124 nM | C=C(C)OC(=O)N1CCC(N(C(=O)c2ccc(-c3cnco3)cc2)C2CC2)CC1 [Example 3, 4-[Cyclopropyl-(4-oxazol-5-yl-benzoyl)-amino]-piperidine-1-carboxylic acid isopropenyl ester] |
| 316 nM | Cc1nc(-c2ccc(C(=O)N(C3CC3)C3CCN(C(=O)OC(C)(C)C)CC3)cc2)no1 [Example 67, 4-{Cyclopropyl-[4-(5-methyl-[1,2,4]oxadiazol-3-yl)-benzoyl]-amino}-piperidine-1-carboxylic acid tert-butyl ester] |
| 233 nM | CN(C)C(=O)Nc1nnc(-c2ccc(C(=O)N(C3CC3)C3CCN(C(=O)OC(C)(C)C)CC3)cc2)s1 [Example 76, 4-(Cyclopropyl-{4-[5-(3,3-dimethyl-ureido)-[1,3,4]thiadiazol-2-yl]-benzoyl}-amino)-piperidine-1-carboxylic acid tert-butyl ester] |
| 2220 nM | Cn1cnc(-c2ccc(C(=O)N(C3CC3)C3CCN(C(=O)OC(C)(C)C)CC3)cc2)n1 [Example 17, 4-{Cyclopropyl-[4-(1-methyl-1H-[1,2,4]triazol-3-yl)-benzoyl]-amino}-piperidine-1-carboxylic acid tert-butyl ester] |
| 171 nM | CNC(=O)c1ccc(-c2ccc(C(=O)N(C3CC3)C3CCN(C(=O)OC(C)(C)C)CC3)cc2)nc1 [Example 30, 4-{Cyclopropyl-[4-(5-methylcarbamoyl-pyridin-2-yl)-benzoyl]-amino}-piperidine-1-carboxylic acid tert-butyl ester] |
| 52 nM | CC1(OC(=O)N2CCC(N(C(=O)c3ccc(-c4cnco4)cc3)C3CC3)CC2)CC1 [Example 20, 4-[Cyclopropyl-(4-oxazol-5-yl-benzoyl)-amino]-piperidine-1-carboxylic acid 1-methyl-cyclopropyl ester] |
| 15 nM | COC1CN(C(=O)OC(C)(C)C)CCC1N(C(=O)c1ccc(-c2cnco2)cc1)C1CC1 (stereo not drawn) [Example 45, 4-[Cyclopropyl-(4-oxazol-5-yl-benzoyl)-amino]-3-methoxy-piperidine-1-carboxylic acid tert-butyl ester] |
| 345 nM | CC(C)(C)OC(=O)N1CCC(N(C(=O)c2ccc(-c3ccsc3)cc2)C2CC2)CC1 [Example 80, 4-[Cyclopropyl-(4-thiophen-3-yl-benzoyl)-amino]-piperidine-1-carboxylic acid tert-butyl ester] |
| 76 nM | Cc1ccc(-c2ccc(C(=O)N(C3CC3)C3CCN(C(=O)OC(C)(C)C)CC3)cc2)nn1 [Example 16, 4-{Cyclopropyl-[4-(6-methyl-pyridazin-3-yl)-benzoyl]-amino}-piperidine-1-carboxylic acid tert-butyl ester] |
| 1010 nM | CCOC(=O)c1c(C)nn(-c2ccc(C(=O)N(C3CC3)C3CCN(C(=O)OC(C)(C)C)CC3)cc2)c1C [Example 79, 4-{Cyclopropyl-[4-(4-ethoxycarbonyl-3,5-dimethyl-pyrazol-1-yl)-benzoyl]-amino}-piperidine-1-carboxylic acid tert-butyl ester] |
| 1570 nM | COC(=O)N1CCC(N(C(=O)c2ccc(-c3cnco3)cc2)C2CC2)CC1 [Example 116, 4-[Cyclopropyl-(4-oxazol-5-yl-benzoyl)-amino]-piperidine-1-carboxylic acid methyl ester] |
| 238 nM | CC(C)(C)OC(=O)N1CCC(N(C(=O)c2ccc(-c3ncon3)cc2)C2CC2)CC1 [Example 25, 4-[Cyclopropyl-(4-[1,2,4]oxadiazol-3-yl-benzoyl)-amino]-piperidine-1-carboxylic acid tert-butyl ester] |
| 884 nM | Cc1nc(-c2ccc(C(=O)N(C3CC3)C3CCN(C(=O)OC(C)(C)C)CC3)cc2)co1 [Example 5, 4-{Cyclopropyl-[4-(2-methyl-oxazol-4-yl)-benzoyl]-amino}-piperidine-1-carboxylic acid tert-butyl ester] |
| 104 nM | CC(C)(C)OC(=O)N1CCC(N(C(=O)c2ccc(-n3cnc(-c4ccccc4)c3)cc2)C2CC2)CC1 [Example 56, 4-{Cyclopropyl-[4-(4-phenyl-imidazol-1-yl)-benzoyl]-amino}-piperidine-1-carboxylic acid tert-butyl ester] |
| 394 nM | CC(=O)Nc1nnc(-c2ccc(C(=O)N(C3CC3)C3CCN(C(=O)OC(C)(C)C)CC3)cc2)s1 [Example 77, 4-{[4-(5-Acetylamino-[1,3,4]thiadiazol-2-yl)-benzoyl]-cyclopropyl-amino}-piperidine-1-carboxylic acid tert-butyl ester] |
| 1000 nM | Cn1ncnc1-c1ccc(C(=O)N(C2CC2)C2CCN(C(=O)OC(C)(C)C)CC2)cc1 [Example 18, 4-{Cyclopropyl-[4-(2-methyl-2H-[1,2,4]triazol-3-yl)-benzoyl]-amino}-piperidine-1-carboxylic acid tert-butyl ester] |
| 131 nM | COc1ccc(-c2ccc(C(=O)N(C3CC3)C3CCN(C(=O)OC(C)(C)C)CC3)cc2)cn1 [Example 96, 4-{Cyclopropyl-[4-(6-methoxy-pyridin-3-yl)-benzoyl]-amino}-piperidine-1-carboxylic acid tert-butyl ester] |
| 39 nM | CC(C)(C)OC(=O)N1CCC(N(C(=O)c2ccc(-c3ccc(C(N)=O)cc3)cc2)C2CC2)CC1 [Example 102, 4-[(4′-Carbamoyl-biphenyl-4-carbonyl)-cyclopropyl-amino]-piperidine-1-carboxylic acid tert-butyl ester] |
| 78 nM | CC(C)(C)OC(=O)N1CCC(N(C(=O)c2ccc(-c3ccc(C#N)c(F)c3)cc2)C2CC2)CC1 [Example 106, 4-[(4′-Cyano-3′-fluoro-biphenyl-4-carbonyl)-cyclopropyl-amino]-piperidine-1-carboxylic acid tert-butyl ester] |
| 68 nM | CC(C)(C)OC(=O)N1CCC(N(C(=O)c2ccc(-c3ccc(CO)cc3)cc2)C2CC2)CC1 [Example 98, 4-[Cyclopropyl-(4′-hydroxymethyl-biphenyl-4-carbonyl)-amino]-piperidine-1-carboxylic acid tert-butyl ester] |
| 4460 nM | CC(C)(O)COC(=O)N1CCC(N(C(=O)c2ccc(-c3cnco3)cc2)C2CC2)CC1 [Example 15, 4-[Cyclopropyl-(4-oxazol-5-yl-benzoyl)-amino]-piperidine-1-carboxylic acid 2-hydroxy-2-methyl-propyl ester] |
| 62 nM | CC(C)OC(=O)N1CCC(N(C(=O)c2ccc(-c3cnco3)cc2)C2CC2)CC1 [Example 118, 4-[Cyclopropyl-(4-oxazol-5-yl-benzoyl)-amino]-piperidine-1-carboxylic acid isopropyl ester] |
| 128 nM | O=C(OCc1ccccc1)N1CCC(N(C(=O)c2ccc(-c3cnco3)cc2)C2CC2)CC1 [Example 126, 4-[Cyclopropyl-(4-oxazol-5-yl-benzoyl)-amino]-piperidine-1-carboxylic acid benzyl ester] |
| 27 nM | CC(C)(C)OC(=O)N1CCC(N(C(=O)c2ccc(-c3ccncc3C#N)cc2)C2CC2)CC1 [Example 29, 4-{[4-(3-Cyano-pyridin-4-yl)-benzoyl]-cyclopropyl-amino}-piperidine-1-carboxylic acid tert-butyl ester] |

| Structure (SMILES) | EC50 |
| --- | --- |
| COC(=O)c1ccc(-c2ccc(C(=O)N(C3CC3)C3CCN(C(=O)OC(C)(C)C)CC3)cc2)cn1 [Example 107, 5-{4-[(1-tert-Butoxycarbonyl-piperidin-4-yl)-cyclopropyl-carbamoyl]-phenyl}-pyridine-2-carboxylic acid methyl ester] | 66 nM |
| CC(C)(C)OC(=O)N1CCC(N(C(=O)c2ccc(-c3ccc(C(=O)O)nc3)cc2)C2CC2)CC1 [Example 115, 5-{4[(1-tert-Butoxycarbonyl-piperidin-4-yl)-cyclopropyl-carbamoyl]-phenyl}-pyridine-2-carboxylic acid] | 1090 nM |
